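In this assay, cells in 96-well plates receive the compound at five concentrations for 48 hours. Endpoints are linearly interpolated between the surrounding concentrations. Here, GI50 denotes the concentration required for 50% inhibition of growth.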 Active and inactive are the calls of the source. No stated cut-off is given here; in the data, active = GI50 up to about 1.1 µM and inactive = higher.
Legend:
Assay in all cases: inhibition of tumour cell growth, NCI panel, 48 h
[1] = system: A549
[2] = system: ACHN
[3] = system: HCT-15
[4] = system: K562
[5] = system: MOLT-4
[6] = system: Malme-3M
[7] = system: NCI-H226
[8] = system: NCI-H522
[9] = system: OVCAR-8
[10] = system: SN12C
[11] = system: SNB-75
[12] = system: SW-620
[13] = system: TK-10
[14] = system: U-251
[15] = system: UACC-257
[16] = system: M14
[17] = system: OVCAR-3
[18] = system: OVCAR-5
[19] = system: SF-268

Measured: GI50

CCN(/N=C1\CC2C=CCN(C2)C(=O)Cc2c1[nH]c1ccccc21)S(=O)(=O)c1ccc(C)cc1 (configuration not stated)
inactive: [1] 49.8 µM | [2] > 100 µM | [4] 71.6 µM | [5] 59.4 µM | [6] > 100 µM | [7] 14.6 µM | [8] 36.7 µM | [9] 78 µM | [10] 86.7 µM | [11] 35.6 µM | [12] 78 µM | [13] > 100 µM | [14] > 100 µM | [15] 94.2 µM
85.9 µM: [3]

C=C(c1ccccc1)c1cc2c(=O)[nH]ccc2n1C
27.3 µM: [3]
inactive: [1] 31.7 µM | [2] 35.7 µM | [4] 13.8 µM | [16] 29.2 µM | [5] 27.2 µM | [6] 30.1 µM | [8] 16.3 µM | [17] 24.8 µM | [18] 44.2 µM | [9] 34 µM | [19] 33.3 µM | [10] 34.2 µM | [11] 11.9 µM | [12] 28.5 µM | [13] 55.3 µM | [15] 37.1 µM

CCc1ccccc1NC(=O)C1=C(C)NC(C)=C(C(=O)Nc2ccccc2CC)C1c1cccc([N+](=O)[O-])c1
inactive: [1] 21.5 µM | [2] 29.5 µM | [4] 29.4 µM | [16] 29 µM | [5] 7.45 µM | [6] 35.9 µM | [7] 29.8 µM | [8] 22.2 µM | [17] 52 µM | [18] 41.5 µM | [9] 44.7 µM | [19] 43 µM | [10] 70.6 µM | [11] 32.1 µM | [12] 47.5 µM | [13] 41.6 µM | [14] 39.4 µM | [15] 33.2 µM

CCC1C(c2cc(OC)c(OC)c(OC)c2)c2cc3c(cc2OC1N1CCOCC1)OCO3 (configuration not stated)
inactive: [1] 4.36 µM | [2] 3.99 µM | [16] 4.12 µM | [5] 1.88 µM | [6] 13.2 µM | [7] 7.98 µM | [8] 4.95 µM | [17] 4.31 µM | [18] 2.29 µM | [9] 3.93 µM | [19] 10.5 µM | [10] 8.15 µM | [11] 9.4 µM | [12] 1.98 µM | [15] 14.6 µM
3.08 µM: [3]

COc1ccc(C2ON(c3ccccn3)CC=C2C)cc1 (configuration not stated)
inactive: [1] > 100 µM | [2] > 100 µM | [4] > 100 µM | [16] > 100 µM | [5] 96.4 µM | [6] > 100 µM | [7] > 100 µM | [8] 47.4 µM | [17] > 100 µM | [18] 36.5 µM | [9] > 100 µM | [19] > 100 µM | [10] > 100 µM | [11] > 100 µM | [12] > 100 µM | [14] > 100 µM | [15] > 100 µM
> 100 µM: [3]

CO/N=C(/C(=O)Nc1c[n+](CC(=O)[O-])cs1)c1csc(N)n1
> 100 µM: [3]
inactive: [1] > 100 µM | [2] > 100 µM | [4] > 100 µM | [16] > 100 µM | [5] > 100 µM | [6] > 100 µM | [7] > 100 µM | [8] > 100 µM | [17] > 100 µM | [18] > 100 µM | [9] > 100 µM | [19] > 100 µM | [10] > 100 µM | [12] > 100 µM | [13] > 100 µM | [14] > 100 µM | [15] > 100 µM

N#CC(C(=O)C(=O)Nc1ccccc1)c1ccccc1 (configuration not stated)
> 100 µM: [3]
inactive: [1] > 100 µM | [2] > 100 µM | [4] > 100 µM | [16] > 100 µM | [5] > 100 µM | [6] > 100 µM | [7] > 100 µM | [8] > 100 µM | [17] > 100 µM | [19] > 100 µM | [10] > 100 µM | [11] > 100 µM | [12] > 100 µM | [13] > 100 µM | [14] > 100 µM | [15] > 100 µM

Cc1cc(Br)ccc1/N=N/C1C(=O)ON=C1c1ccccc1 (configuration not stated)
inactive: [1] 25.7 µM | [2] 63.4 µM | [4] 45 µM | [16] > 100 µM | [5] 31.3 µM | [6] > 100 µM | [7] > 100 µM | [8] 40.6 µM | [17] > 100 µM | [18] > 100 µM | [9] > 100 µM | [19] > 100 µM | [10] > 100 µM | [11] > 100 µM | [12] > 100 µM | [13] 69.3 µM | [14] > 100 µM | [15] > 100 µM

From ChEMBL document CHEMBL1201862, “PubChem BioAssay data set” (2004)
